Paper PMC6499206, “Quantification of Volatile Metabolites Derived From Garlic (Allium sativum) in Human Urine” (Frontiers in Nutrition, 2019)

Experiment: Quantification of garlic-derived metabolites in human urine after ingestion of 3 g raw garlic (SIDA, SAFE, HRGC-MS / HRGC-GC-MS)
Format: in vivo
Conditions: 3 g raw garlic
In short: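 Quantification used stable isotope dilution (²H3-AMS, -AMSO, -AMSO2 standards), SAFE distillation at 50°C of DCM-treated urine, and GC-MS on a DB-FFAP column, with creatinine from the Jaffé reaction at 492 nm. Urine came from 18 volunteers avoiding sulfur-rich foods, sampled before and up to 24 h after eating 3 g raw garlic.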

Compound: C=CC[S+](C)[O-] (stereo not drawn) [AMSO, allyl methyl sulfoxide]
- metabolite concentration in urine (U VII, 1 h post (1.08 h)): 239.4 µg/kg
- metabolite concentration in urine, creatinine-normalized (U VII, 1 h post (1.08 h)): 148.3 µg/mmol creatinine
- metabolite concentration in urine (U VII, 2 h post (2.00 h)): 158.6 µg/kg
- metabolite concentration in urine, creatinine-normalized (U VII, 2 h post (2.00 h)): 162.5 µg/mmol creatinine
- metabolite concentration in urine (U VII, 4 h post (4.00 h)): 145.1 µg/kg
- metabolite concentration in urine, creatinine-normalized (U VII, 4 h post (4.00 h)): 90.0 µg/mmol creatinine
- metabolite concentration in urine (U VII, 6 h post (6.00 h)): 123.7 µg/kg
- metabolite concentration in urine, creatinine-normalized (U VII, 6 h post (6.00 h)): 40.0 µg/mmol creatinine
- metabolite concentration in urine (U VII, 8 h post (8.00 h)): 58.6 µg/kg
- metabolite concentration in urine, creatinine-normalized (U VII, 8 h post (8.00 h)): 30.1 µg/mmol creatinine
- metabolite concentration in urine (U VII, 24 h post (24.00 h)): 5.9 µg/kg
- metabolite concentration in urine, creatinine-normalized (U VII, 24 h post (24.00 h)): 1.6 µg/mmol creatinine
- metabolite concentration in urine (U VII, pre (-0.25 h)): 3.4 µg/kg
- metabolite concentration in urine, creatinine-normalized (U VII, pre (-0.25 h)): 1.0 µg/mmol creatinine
- metabolite concentration in urine (U VIII, 0.5 h post (0.52 h)): 184.6 µg/kg
- metabolite concentration in urine, creatinine-normalized (U VIII, 0.5 h post (0.52 h)): 234.8 µg/mmol creatinine
- metabolite concentration in urine (U VIII, 1 h post (1.08 h)): 423.9 µg/kg
- metabolite concentration in urine, creatinine-normalized (U VIII, 1 h post (1.08 h)): 255.5 µg/mmol creatinine
- metabolite concentration in urine (U VIII, 2 h post (2.08 h)): 293.8 µg/kg
- metabolite concentration in urine, creatinine-normalized (U VIII, 2 h post (2.08 h)): 277.9 µg/mmol creatinine
- metabolite concentration in urine (U VIII, 4 h post (4.07 h)): 239.2 µg/kg
- metabolite concentration in urine, creatinine-normalized (U VIII, 4 h post (4.07 h)): 113.3 µg/mmol creatinine
- metabolite concentration in urine (U VIII, 6 h post (6.08 h)): 197.8 µg/kg
- metabolite concentration in urine, creatinine-normalized (U VIII, 6 h post (6.08 h)): 52.6 µg/mmol creatinine
- metabolite concentration in urine (U VIII, 8 h post (7.90 h)): 109.7 µg/kg
- metabolite concentration in urine, creatinine-normalized (U VIII, 8 h post (7.90 h)): 40.0 µg/mmol creatinine
- metabolite concentration in urine (U VIII, 24 h post (23.83 h)): 26.2 µg/kg
- metabolite concentration in urine, creatinine-normalized (U VIII, 24 h post (23.83 h)): 9.9 µg/mmol creatinine
- metabolite concentration in urine (U VIII, pre (-0.33 h)): 61.4 µg/kg
- metabolite concentration in urine, creatinine-normalized (U VIII, pre (-0.33 h)): 13.8 µg/mmol creatinine
- metabolite concentration in urine (U X, 0.5 h post (0.53 h)): 73.7 µg/kg
- metabolite concentration in urine, creatinine-normalized (U X, 0.5 h post (0.53 h)): 38.2 µg/mmol creatinine
- metabolite concentration in urine (U X, 1 h post (1.03 h)): 77.0 µg/kg
- metabolite concentration in urine, creatinine-normalized (U X, 1 h post (1.03 h)): 97.5 µg/mmol creatinine
- metabolite concentration in urine (U X, 2 h post (2.03 h)): 68.8 µg/kg
- metabolite concentration in urine, creatinine-normalized (U X, 2 h post (2.03 h)): 102.4 µg/mmol creatinine
- metabolite concentration in urine (U X, 4 h post (3.85 h)): 68.2 µg/kg
- metabolite concentration in urine, creatinine-normalized (U X, 4 h post (3.85 h)): 51.9 µg/mmol creatinine
- metabolite concentration in urine (U X, 6 h post (5.80 h)): 68.6 µg/kg
- metabolite concentration in urine, creatinine-normalized (U X, 6 h post (5.80 h)): 29.1 µg/mmol creatinine
- metabolite concentration in urine (U X, 8 h post (7.75 h)): 37.9 µg/kg
- metabolite concentration in urine, creatinine-normalized (U X, 8 h post (7.75 h)): 16.3 µg/mmol creatinine
- metabolite concentration in urine (U X, 24 h post (23.97 h)): 23.9 µg/kg
- metabolite concentration in urine, creatinine-normalized (U X, 24 h post (23.97 h)): 2.2 µg/mmol creatinine
- metabolite concentration in urine (U X, pre (-0.07 h)): < LOD^2
- metabolite concentration in urine, creatinine-normalized (U X, pre (-0.07 h)): < LOD^2
- metabolite concentration in urine (U XI, 0.5 h post (0.50 h)): 64.0 µg/kg
- metabolite concentration in urine, creatinine-normalized (U XI, 0.5 h post (0.50 h)): 77.5 µg/mmol creatinine
- metabolite concentration in urine (U XI, 1 h post (1.02 h)): 106.2 µg/kg
- metabolite concentration in urine, creatinine-normalized (U XI, 1 h post (1.02 h)): 133.3 µg/mmol creatinine
- metabolite concentration in urine (U XI, 2 h post (2.00 h)): 102.2 µg/kg
- metabolite concentration in urine, creatinine-normalized (U XI, 2 h post (2.00 h)): 133.3 µg/mmol creatinine
- metabolite concentration in urine (U XI, pre (-0.08 h)): 3.8 µg/kg
- metabolite concentration in urine, creatinine-normalized (U XI, pre (-0.08 h)): 1.1 µg/mmol creatinine
- metabolite concentration in urine (U XII, 0.5 h post (0.48 h)): 83.8 µg/kg
- metabolite concentration in urine, creatinine-normalized (U XII, 0.5 h post (0.48 h)): 11.2 µg/mmol creatinine
- metabolite concentration in urine (U XII, 1 h post (1.03 h)): 82.1 µg/kg
